Results: paper PMC11062922 (Nature Chemical Biology, 2023)
Like-named read-outs stand apart in the source and are kept apart here.

Legend:
[1] = molecular target: T1, CK2alpha1 (CSNK2A1) (Homo sapiens, UniProt P68400); experiment: Recombinant kinase activity assay (ProQinase, FlashPlate radiometric): CK2alpha1; format: biochemical
T1 construct: purchased ProQinase
Method: (§1) Kinase activity assays were performed by ProQinase. Dose-dependent activity inhibition of CDK1/cyclinB, CK2alpha1 and CK2alpha2 were measured using a FlashPlateTM-based radiometric assay at KM (ATP) of the respective kinase.

[2] = molecular target: T2, CK2alpha2 (CSNK2A2) (Homo sapiens, UniProt P19784); experiment: Recombinant kinase activity assay (ProQinase, FlashPlate radiometric): CK2alpha2; format: biochemical
T2 construct: purchased ProQinase
T2 sequence (P19784 whole entry): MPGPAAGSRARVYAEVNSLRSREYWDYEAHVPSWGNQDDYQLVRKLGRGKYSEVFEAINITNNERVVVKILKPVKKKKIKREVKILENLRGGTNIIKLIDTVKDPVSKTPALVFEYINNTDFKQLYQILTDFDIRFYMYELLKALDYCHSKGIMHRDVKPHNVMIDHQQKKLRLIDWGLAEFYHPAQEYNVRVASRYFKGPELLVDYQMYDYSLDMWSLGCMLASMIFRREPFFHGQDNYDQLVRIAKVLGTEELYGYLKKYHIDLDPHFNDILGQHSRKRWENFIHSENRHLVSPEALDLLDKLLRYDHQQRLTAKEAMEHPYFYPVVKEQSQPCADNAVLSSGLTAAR
Method: as §1

[3] = molecular target: T3, MAPK14 (Homo sapiens, UniProt Q16539); experiment: Kinobeads full dose-response competition binding: MAPK14; settings: Gene Name MAPK14
T3 construct: endogenous in cells
T3 sequence (Q16539 whole entry): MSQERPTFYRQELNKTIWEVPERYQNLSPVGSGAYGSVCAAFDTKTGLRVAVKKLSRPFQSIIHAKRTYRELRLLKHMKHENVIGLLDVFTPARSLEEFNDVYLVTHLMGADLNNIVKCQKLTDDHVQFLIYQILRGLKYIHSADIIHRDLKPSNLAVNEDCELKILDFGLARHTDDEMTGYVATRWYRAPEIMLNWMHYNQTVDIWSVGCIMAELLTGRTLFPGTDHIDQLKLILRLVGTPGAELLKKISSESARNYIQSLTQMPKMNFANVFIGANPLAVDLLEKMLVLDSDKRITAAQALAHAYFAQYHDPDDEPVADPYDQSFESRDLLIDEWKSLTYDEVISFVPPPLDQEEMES

[4] = molecular target: T4, RIPK3 (Homo sapiens, UniProt Q9Y572); experiment: Kinobeads full dose-response competition binding: RIPK3; settings: Gene Name RIPK3
T4 construct: endogenous in cells
T4 sequence (Q9Y572 whole entry): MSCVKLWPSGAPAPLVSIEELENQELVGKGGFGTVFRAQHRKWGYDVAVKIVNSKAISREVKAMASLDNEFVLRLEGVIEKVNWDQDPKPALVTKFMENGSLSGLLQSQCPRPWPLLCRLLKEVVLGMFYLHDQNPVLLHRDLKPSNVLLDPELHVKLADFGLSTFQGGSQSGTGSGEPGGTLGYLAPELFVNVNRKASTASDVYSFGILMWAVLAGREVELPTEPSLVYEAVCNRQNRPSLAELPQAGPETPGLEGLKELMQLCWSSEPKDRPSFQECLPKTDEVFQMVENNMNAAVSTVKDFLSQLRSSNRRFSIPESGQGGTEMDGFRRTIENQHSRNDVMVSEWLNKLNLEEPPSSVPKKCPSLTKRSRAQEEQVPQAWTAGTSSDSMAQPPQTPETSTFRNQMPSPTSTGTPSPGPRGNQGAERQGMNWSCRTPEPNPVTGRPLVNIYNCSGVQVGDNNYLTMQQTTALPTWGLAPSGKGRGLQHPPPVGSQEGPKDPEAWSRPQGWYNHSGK

[5] = molecular target: T5, EPHB2 (Homo sapiens, UniProt P29323); experiment: Kinobeads two-dose competition binding: EPHB2; settings: read-out: Lestaurtinib Drugmatrix value, Gene Name EPHB2
T5 construct: endogenous in cells
T5 sequence (P29323 19-1055): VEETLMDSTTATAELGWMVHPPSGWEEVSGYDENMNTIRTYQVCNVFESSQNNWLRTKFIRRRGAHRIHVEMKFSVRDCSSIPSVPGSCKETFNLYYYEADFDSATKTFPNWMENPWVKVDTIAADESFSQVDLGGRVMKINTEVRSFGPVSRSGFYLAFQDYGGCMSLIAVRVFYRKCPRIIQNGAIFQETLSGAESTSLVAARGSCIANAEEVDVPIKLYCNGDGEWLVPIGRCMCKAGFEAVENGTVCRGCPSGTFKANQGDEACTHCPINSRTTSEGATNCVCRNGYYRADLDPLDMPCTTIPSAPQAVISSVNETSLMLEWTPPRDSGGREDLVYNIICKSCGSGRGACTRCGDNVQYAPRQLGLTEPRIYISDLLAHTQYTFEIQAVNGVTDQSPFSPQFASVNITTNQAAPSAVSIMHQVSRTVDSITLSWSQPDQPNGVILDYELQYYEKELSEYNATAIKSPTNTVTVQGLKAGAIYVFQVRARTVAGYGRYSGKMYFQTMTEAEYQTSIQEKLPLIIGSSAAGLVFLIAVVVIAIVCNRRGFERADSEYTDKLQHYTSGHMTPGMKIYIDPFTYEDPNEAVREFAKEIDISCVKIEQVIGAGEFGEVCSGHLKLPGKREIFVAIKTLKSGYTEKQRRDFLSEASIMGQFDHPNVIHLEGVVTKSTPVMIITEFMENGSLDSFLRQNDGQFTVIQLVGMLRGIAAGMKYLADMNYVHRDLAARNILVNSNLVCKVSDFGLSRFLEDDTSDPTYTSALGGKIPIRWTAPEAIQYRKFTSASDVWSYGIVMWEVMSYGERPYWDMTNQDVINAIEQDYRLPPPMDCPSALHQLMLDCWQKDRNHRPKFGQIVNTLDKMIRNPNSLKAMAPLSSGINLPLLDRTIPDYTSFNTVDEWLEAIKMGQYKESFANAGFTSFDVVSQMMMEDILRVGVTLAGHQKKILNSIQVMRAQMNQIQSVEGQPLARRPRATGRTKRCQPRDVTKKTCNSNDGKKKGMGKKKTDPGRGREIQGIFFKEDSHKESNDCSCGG

[6] = molecular target: T6, FLT4 (Homo sapiens, UniProt P35916); experiment: Kinobeads two-dose competition binding: FLT4; settings: read-out: Lestaurtinib Drugmatrix value, Gene Name FLT4
T6 construct: endogenous in cells
T6 sequence (P35916 25-1363): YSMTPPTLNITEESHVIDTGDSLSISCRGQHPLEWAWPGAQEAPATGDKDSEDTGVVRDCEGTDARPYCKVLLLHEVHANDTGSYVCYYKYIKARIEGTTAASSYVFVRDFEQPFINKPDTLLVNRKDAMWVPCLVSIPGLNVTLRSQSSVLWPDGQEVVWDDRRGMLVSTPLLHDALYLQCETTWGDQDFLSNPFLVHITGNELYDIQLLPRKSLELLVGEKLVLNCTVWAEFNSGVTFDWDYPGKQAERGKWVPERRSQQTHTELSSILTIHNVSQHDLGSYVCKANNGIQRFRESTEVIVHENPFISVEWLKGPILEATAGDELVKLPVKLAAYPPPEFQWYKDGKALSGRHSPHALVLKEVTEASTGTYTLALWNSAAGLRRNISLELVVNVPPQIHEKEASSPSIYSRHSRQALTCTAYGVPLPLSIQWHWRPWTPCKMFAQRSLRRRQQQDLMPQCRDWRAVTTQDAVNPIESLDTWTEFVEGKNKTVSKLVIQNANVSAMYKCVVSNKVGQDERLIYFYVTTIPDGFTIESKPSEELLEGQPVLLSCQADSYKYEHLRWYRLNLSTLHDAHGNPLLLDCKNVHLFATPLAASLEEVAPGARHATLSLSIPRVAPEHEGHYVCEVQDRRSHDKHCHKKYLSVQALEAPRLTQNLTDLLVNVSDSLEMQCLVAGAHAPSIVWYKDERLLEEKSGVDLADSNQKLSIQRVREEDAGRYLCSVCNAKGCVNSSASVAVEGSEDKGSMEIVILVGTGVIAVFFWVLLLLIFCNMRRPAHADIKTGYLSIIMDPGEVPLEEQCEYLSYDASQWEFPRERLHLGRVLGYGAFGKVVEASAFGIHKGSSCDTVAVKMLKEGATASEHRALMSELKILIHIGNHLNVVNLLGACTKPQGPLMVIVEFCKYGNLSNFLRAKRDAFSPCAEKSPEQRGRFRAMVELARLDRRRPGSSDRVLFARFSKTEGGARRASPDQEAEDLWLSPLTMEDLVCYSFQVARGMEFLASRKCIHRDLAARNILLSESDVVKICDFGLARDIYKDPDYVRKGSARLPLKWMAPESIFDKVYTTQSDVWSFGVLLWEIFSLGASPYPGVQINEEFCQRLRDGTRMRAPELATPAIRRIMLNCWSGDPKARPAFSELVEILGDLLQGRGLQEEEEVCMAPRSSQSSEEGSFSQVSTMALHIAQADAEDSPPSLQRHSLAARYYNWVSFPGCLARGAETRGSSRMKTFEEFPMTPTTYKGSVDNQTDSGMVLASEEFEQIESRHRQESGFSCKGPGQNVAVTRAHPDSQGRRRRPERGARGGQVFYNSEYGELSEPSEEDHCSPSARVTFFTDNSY

[7] = molecular target: T7, ERN1 (Homo sapiens, UniProt O75460); experiment: Kinobeads two-dose competition binding: ERN1; settings: read-out: Lestaurtinib Drugmatrix value, Gene Name ERN1
T7 construct: endogenous in cells

[8] = molecular target: T8, PRKCQ (Homo sapiens, UniProt Q04759); experiment: Kinobeads full dose-response competition binding: PRKCQ; settings: Gene Name PRKCQ
T8 construct: to maximize the representation of endogenous proteins; endogenous in cells
T8 sequence (Q04759 whole entry): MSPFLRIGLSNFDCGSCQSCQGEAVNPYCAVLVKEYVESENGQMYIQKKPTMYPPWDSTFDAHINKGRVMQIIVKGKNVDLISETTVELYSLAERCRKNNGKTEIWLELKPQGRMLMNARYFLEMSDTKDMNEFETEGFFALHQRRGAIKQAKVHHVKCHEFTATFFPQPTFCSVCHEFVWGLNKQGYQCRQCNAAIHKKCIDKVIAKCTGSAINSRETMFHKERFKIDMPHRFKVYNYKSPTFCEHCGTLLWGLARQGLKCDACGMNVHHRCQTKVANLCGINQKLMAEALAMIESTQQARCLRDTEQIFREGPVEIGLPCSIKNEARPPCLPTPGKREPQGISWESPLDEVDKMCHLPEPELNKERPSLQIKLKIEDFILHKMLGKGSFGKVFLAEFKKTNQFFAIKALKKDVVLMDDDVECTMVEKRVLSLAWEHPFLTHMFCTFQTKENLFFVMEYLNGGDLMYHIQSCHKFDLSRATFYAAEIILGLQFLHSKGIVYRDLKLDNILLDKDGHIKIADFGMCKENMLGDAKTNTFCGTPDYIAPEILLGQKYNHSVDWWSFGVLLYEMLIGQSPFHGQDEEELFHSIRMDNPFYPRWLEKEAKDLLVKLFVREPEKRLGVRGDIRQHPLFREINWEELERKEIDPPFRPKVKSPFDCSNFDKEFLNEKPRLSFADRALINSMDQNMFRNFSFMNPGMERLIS

[9] = molecular target: T9, PKN2 (Homo sapiens, UniProt Q16513); experiment: Kinobeads full dose-response competition binding: PKN2; settings: Gene Name PKN2
T9 construct: a mixture of lysates from five cancer cell lines; endogenous in cells
T9 sequence (Q16513 whole entry): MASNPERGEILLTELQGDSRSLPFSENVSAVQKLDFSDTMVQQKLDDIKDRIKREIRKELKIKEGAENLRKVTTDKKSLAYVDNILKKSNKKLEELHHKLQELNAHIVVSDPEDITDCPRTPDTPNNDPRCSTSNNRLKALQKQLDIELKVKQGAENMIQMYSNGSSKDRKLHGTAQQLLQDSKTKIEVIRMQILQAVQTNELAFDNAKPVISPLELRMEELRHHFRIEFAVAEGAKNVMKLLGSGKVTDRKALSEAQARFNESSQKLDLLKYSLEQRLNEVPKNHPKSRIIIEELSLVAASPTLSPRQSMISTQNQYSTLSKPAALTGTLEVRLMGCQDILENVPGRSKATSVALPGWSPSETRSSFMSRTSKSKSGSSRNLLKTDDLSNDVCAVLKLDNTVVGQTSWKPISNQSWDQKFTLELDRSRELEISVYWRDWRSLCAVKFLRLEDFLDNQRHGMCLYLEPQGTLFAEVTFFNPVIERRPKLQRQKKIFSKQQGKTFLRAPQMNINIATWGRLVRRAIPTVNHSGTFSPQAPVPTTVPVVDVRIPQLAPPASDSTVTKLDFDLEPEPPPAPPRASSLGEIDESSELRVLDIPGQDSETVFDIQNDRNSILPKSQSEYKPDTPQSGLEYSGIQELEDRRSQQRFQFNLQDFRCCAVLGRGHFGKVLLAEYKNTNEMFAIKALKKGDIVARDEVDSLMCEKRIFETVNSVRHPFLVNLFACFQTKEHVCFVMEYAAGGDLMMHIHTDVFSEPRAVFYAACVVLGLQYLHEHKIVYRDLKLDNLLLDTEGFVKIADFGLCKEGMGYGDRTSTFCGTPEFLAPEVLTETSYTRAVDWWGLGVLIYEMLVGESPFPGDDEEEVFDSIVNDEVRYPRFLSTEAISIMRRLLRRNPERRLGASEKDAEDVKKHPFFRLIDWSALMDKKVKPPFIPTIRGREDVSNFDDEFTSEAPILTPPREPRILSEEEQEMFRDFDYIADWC

[10] = EC50 with Correction, doses in nM, read-out: apparent Kd
[11] = eight-dose curve fit, doses in nM

T1 sequence (P68400 whole entry): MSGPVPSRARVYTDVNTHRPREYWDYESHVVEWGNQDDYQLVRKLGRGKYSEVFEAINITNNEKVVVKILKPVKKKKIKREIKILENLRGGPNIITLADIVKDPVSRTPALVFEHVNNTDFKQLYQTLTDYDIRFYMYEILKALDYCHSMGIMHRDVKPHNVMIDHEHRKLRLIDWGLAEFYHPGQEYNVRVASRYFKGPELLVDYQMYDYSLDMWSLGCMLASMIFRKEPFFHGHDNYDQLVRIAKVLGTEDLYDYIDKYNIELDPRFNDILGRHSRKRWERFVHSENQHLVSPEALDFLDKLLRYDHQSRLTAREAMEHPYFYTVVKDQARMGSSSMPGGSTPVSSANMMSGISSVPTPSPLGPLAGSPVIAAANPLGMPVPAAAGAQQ

COc1cc(Nc2ncc3c(C)nc(-c4cc5ccccc5[nH]4)n3n2)cc(OC)c1OC [GW869516X]
IC50 ([1]; Enzyme CK2alpha1, Highest Assay Concentration 1.00E-06 M, read-out: IC50): 85.1 nM | IC50 ([1]; recombinant kinase activity assay at KM (ATP), read-out: Activity IC50 CSNK2A1): 85 nM | IC50 ([2]; Enzyme CK2alpha2, Highest Assay Concentration 1.00E-06 M, read-out: IC50): 33.7 nM | IC50 ([2]; recombinant kinase activity assay at KM (ATP), read-out: Activity IC50 CSNK2A2): 34 nM

NCc1ccc(-c2nc(-c3ccncc3)c(-c3ccc(Cl)c(O)c3)[nH]2)cc1 [SB-476429-A]
Relative Intensity 0.3nM ([3]; 0.3nM compound, DMSO = 1): 1.121 | Relative Intensity 1nM ([3]; 1nM compound, DMSO = 1): 0.9468 | Relative Intensity 3nM ([3]; 3nM compound, DMSO = 1): 1.026 | Relative Intensity 10nM ([3]; 10nM compound, DMSO = 1): 0.8638 | Relative Intensity 30nM ([3]; 30nM compound, DMSO = 1): 0.6876 | Relative Intensity 100nM ([3]; 100nM compound, DMSO = 1): 0.6751 | Relative Intensity 300nM ([3]; 300nM compound, DMSO = 1): 0.325 | Relative Intensity 1000nM ([3]; 1000nM compound, DMSO = 1): 0.2 | Kd [3, 10]: 174 nM | EC50 [3, 11]: 174 nM | Relative Intensity 0.3nM ([4]; 0.3nM compound, DMSO = 1): 1.0435 | Relative Intensity 1nM ([4]; 1nM compound, DMSO = 1): 1.078 | Relative Intensity 3nM ([4]; 3nM compound, DMSO = 1): 1.023 | Relative Intensity 10nM ([4]; 10nM compound, DMSO = 1): 0.8405 | Relative Intensity 30nM ([4]; 30nM compound, DMSO = 1): 0.9631 | Relative Intensity 100nM ([4]; 100nM compound, DMSO = 1): 1.023 | Relative Intensity 300nM ([4]; 300nM compound, DMSO = 1): 0.7216 | Relative Intensity 1000nM ([4]; 1000nM compound, DMSO = 1): 0.4701 | Kd [4, 10]: 289 nM | EC50 [4, 11]: 296 nM

C[C@]12O[C@H](C[C@]1(O)CO)n1c3ccccc3c3c4c(c5c6ccccc6n2c5c31)CNC4=O [Lestaurtinib]
potency estimated from few doses [5]: 257 nM | potency estimated from few doses [6]: 396 nM | potency estimated from few doses [7]: 176 nM

CCn1c(-c2nonc2N)nc2c(C#CC(C)(C)O)nc(OCCN)cc21 [GSK902056A]
Relative Intensity 0.3nM ([8]; 0.3nM compound, DMSO = 1): 0.9348 | Relative Intensity 1nM ([8]; 1nM compound, DMSO = 1): 1.037 | Relative Intensity 3nM ([8]; 3nM compound, DMSO = 1): 0.9215 | Relative Intensity 10nM ([8]; 10nM compound, DMSO = 1): 0.8429 | Relative Intensity 30nM ([8]; 30nM compound, DMSO = 1): 0.5346 | Relative Intensity 100nM ([8]; 100nM compound, DMSO = 1): 0.4204 | Relative Intensity 300nM ([8]; 300nM compound, DMSO = 1): 0 | Relative Intensity 1000nM ([8]; 1000nM compound, DMSO = 1): 0 | Kd [8, 10]: 58.7 nM | EC50 [8, 11]: 58.7 nM | Relative Intensity 0.3nM ([9]; 0.3nM compound, DMSO = 1): 0.9769 | Relative Intensity 1nM ([9]; 1nM compound, DMSO = 1): 1.016 | Relative Intensity 3nM ([9]; 3nM compound, DMSO = 1): 1.0433 | Relative Intensity 10nM ([9]; 10nM compound, DMSO = 1): 1.014 | Relative Intensity 30nM ([9]; 30nM compound, DMSO = 1): 0.9503 | Relative Intensity 100nM ([9]; 100nM compound, DMSO = 1): 0.8449 | Relative Intensity 300nM ([9]; 300nM compound, DMSO = 1): 0.6334 | Relative Intensity 1000nM ([9]; 1000nM compound, DMSO = 1): 0.3485 | Kd [9, 10]: 401 nM | EC50 [9, 11]: 401 nM
